Key:
Herg channel = Herg channel (Homo sapiens, UniProt Q12809); test: Herg channel affinity; type: binding; details: general statement, no value given; low risk of QT prolongation expected
[1] = Thermogravimetric (TG) analysis; type: physicochemical; details: 10°C/min between 30 and 600°C, under nitrogen; no weight loss at lower temperatures
Procedure: Thermogravimetric analyses (TGA) were recorded in a Mettler Toldo SDTA851 e. Samples of approximately 2 mg were weighted into open 40 µlalumina crucibles, and heated at 10°C/min between 30 and 600°C, under nitrogen (80 ml/min).

[2] = Behaviour of the solid form under pressure stress; type: physicochemical; details: 98 kN (98.07 kN), 13 mm diameter samples, 1, 5 and 30 minutes
Procedure: Samples of the a-Polymorph were submitted to pressure stress for various periods of time (1, 5 and 30 minutes) to investigate the effect of pressure on the solid form. The pressure (98kN) used was chosen to correspond to correspond to the pressure at which planar tablets, of a diameter between 10 and 15 mm, are made. […] Precisely, 13 mm diameter samples of the polymorph were submitted to 98.07 kN of pressure using a Specac press for 1, 5 and 30 minutes and analysed, with no difference.

Herg channel, sequence (Q12809 whole entry): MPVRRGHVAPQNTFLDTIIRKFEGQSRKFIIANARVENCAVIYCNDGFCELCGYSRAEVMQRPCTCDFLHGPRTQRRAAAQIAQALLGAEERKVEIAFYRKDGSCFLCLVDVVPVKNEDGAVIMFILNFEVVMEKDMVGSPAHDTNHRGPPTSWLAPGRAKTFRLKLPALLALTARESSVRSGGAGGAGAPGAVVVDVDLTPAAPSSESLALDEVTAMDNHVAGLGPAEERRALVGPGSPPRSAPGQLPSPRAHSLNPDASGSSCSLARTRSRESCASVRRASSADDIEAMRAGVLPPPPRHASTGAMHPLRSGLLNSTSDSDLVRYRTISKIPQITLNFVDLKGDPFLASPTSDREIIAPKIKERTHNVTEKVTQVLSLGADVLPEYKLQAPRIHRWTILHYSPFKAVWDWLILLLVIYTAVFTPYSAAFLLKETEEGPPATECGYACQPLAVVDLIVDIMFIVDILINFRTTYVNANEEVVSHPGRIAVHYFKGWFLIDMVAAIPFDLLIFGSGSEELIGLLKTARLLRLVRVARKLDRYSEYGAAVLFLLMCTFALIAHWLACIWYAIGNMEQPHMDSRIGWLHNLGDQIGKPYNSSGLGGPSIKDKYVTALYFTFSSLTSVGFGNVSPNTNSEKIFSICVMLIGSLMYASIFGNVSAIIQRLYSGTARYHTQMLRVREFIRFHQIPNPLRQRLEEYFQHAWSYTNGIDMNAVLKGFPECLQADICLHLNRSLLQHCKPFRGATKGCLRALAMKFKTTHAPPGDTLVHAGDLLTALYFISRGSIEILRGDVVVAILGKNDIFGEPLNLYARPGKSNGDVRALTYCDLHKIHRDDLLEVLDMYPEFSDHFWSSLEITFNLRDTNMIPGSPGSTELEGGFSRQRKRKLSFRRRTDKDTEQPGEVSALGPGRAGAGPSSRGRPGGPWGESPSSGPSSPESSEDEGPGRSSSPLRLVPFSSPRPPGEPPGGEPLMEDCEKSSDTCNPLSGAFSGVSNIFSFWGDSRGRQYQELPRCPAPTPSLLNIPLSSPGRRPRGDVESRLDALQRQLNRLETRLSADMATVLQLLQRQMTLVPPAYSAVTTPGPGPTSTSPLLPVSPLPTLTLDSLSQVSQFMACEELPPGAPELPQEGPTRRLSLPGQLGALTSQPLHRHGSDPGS

Compound | Herg channel affinity (Herg channel) | temperature of weight loss due to decomposition (TG analysis) [1] | effect of pressure on the solid form (phase change) [2]
O=C(NN1CCCCC1)C1=NN(c2ccc(Cl)cc2Cl)C(c2ccc(Cl)cc2)C1 (racemic) [COMPOUND C, N-piperidinyl-5-(4-chlorophenyl)-1-(2,4-dichlorophenyl)-4,5-dihydro-1H-pyrazole-3-carboxamide] | relatively weak | – | –
O=C(NN1CCCCC1)C1=NN(c2ccc(Cl)cc2Cl)C(c2ccc(Cl)cc2)C1 (racemic) [α-Polymorph, α-Polymorph of N-piperidinyl-5-(4-chlorophenyl)-1-(2,4-dichlorophenyl)-4,5-dihydro-1H-pyrazole-3-carboxamide] | – | higher than 280 °C | did not induce any phase change

Reference: patent publication EP1947089A1, “A-polymorph of a substituted pyrazoline, its preparation and use as medicaments” (Laboratorios del Dr. Esteve S.A., priority 2007, dated 2008)
